Non-standard residues stand in square brackets, D forms with d. Residues, ends and D or L forms follow the SMILES beside them. *: point of attachment. Octanoyl = CCCCCCCC(=O)*
Legend:
WT ClbP = experiment: Assay with purified ClbP protein (LCMS); format: biochemical, E. coli; conditions: 20 μM WT ClbP, room temperature, 24 h
Description: This example is representative of the method described in Example 91 the soluble peptidase domain (amino acids 38 to 375) of ClbP or the catalytically inert mutant S95A was cloned into pET28a using previously defined boundaries as a starting point (Brotherton, J. Am. Chem. Soc., 135:3359-3362, 2013).
WT ClbP or S95A ClbP was isolated as an N-terminally tagged HiS6-SUMO1-fusion protein from […] using E. coli BL21(DE3)RIPL to express the protein. The cells were lysed in 30 mM Tris pH 8.0, 300 mM NaCl, 10% (v/v) glycerol, benzonase (Sigma-Millipore), lysozyme, B-per (ThermoFisher), and Y-per (ThermoFisher). The lysate was clarified via centrifugation (13,000 g, 20 min), and the supernatant was incubated with HiBond Ni-NTA agarose (5 mL). The resin was subsequently washed with wash buffer (30 mM Tris pH 7.5, 250 mM NaCl, 10 mM imidazole, 3% (v/v) glycerol, and 2 mM TCEP). The resin was incubated at 30° C. for 1 h with 1.4 mg ULP1 protease. The resin was then washed with an additional fraction of wash buffer. Centrifuge filtration was used to concentrate the protein, and the concentrated protein was subsequently applied to a 16/600 Superdex 200 size exclusion column with an isocratic elution of 25 mM HEPES, 25 mM Tris pH 7.4, 325 mM NaCl, 10 mM KCl and 3% (v/v) glycerol at a flow rate of […]. The fractions containing the protein were determined by SDS-PAGE, combined, and concentrated by centrifuge filtration. 3 mM TCEP was added to the concentrated protein, which was then aliquoted, flash frozen in liquid N2, and stored at −80° C.
This example is representative of the method described in Example D, ClbP was incubated with test compounds in an in vitro assay. In a typical assay, 0, 1, or 20 μM purified WT or S95A ClbP was incubated with 100 or 500 μM compound in reaction buffer (50 mM Tris-HCl pH 7.5, 37.5 mM NaCl) at room temperature for 24 h. The total volume of this reaction was 150 μL.
After 24 h, 2 volumes of acetonitrile (300 μL) were added to the reaction to quench the solution.
The reaction was centrifuged (4,000 g, 15 min), and then the supernatant was analyzed by LCMS. 5 μL of the supernatant was injected onto an Acquity UPLC BEH C18 1.7 μm 2.1×100 column. Buffer A was 0.1% (v/v) formic acid in water and buffer B was 0.1% (v/v) formic acid in acetonitrile. The flow rate was 0.5 mL/min. The initial % B was 10, which was held for 30 s then ramped up to 90% B over 3 min, held at 90% B for 1 min, ramped down to 10% B over 15 s, and then held at 10% B for 15 s. The UV-Vis spectrum from 210-400 nm was monitored with 3.6 nm resolution. Positive and negative mode ESI were monitored from 100-1000 m/z with a 20 V cone voltage at 5 Hz sampling frequency in centroid collection.
The relative starting material remaining in the WT ClbP reaction was determined by LCMS and then compared to the residual starting material in the no-enzyme and catalytically inert enzyme (S95A ClbP) reactions. In an ideal case, the amount of residual starting material in the WT ClbP reaction was <25% of the amount in the S95A ClbP and no-enzyme conditions. In an acceptable case, the amount of residual starting material in the WT ClbP reaction was 25-75% of the amount in the S95A ClbP and no-enzyme conditions. In a non-preferred case, the amount of residual starting material in the WT ClbP reaction was >75% of the amount in the S95A ClbP and no-enzyme conditions.
Formation of the anticipated product was likewise quantified by LCMS analysis and confirmed by coelution with an external product standard. In an ideal case, the amount of product formed in the WT ClbP reaction corresponded to >75% of the theoretical maximum. In an acceptable case, the amount of product formed in the WT ClbP reaction corresponded to 25-75% of the theoretical maximum. In a non-preferred case, the amount of product formed in the WT ClbP reaction corresponded to <25% of the theoretical maximum.

[1] = system: E. coli CFT073 ATCC 700928 and/or E. coli Nissle 1917; experiment: Cell-based assay with ClbP with LCMS, ClbP positive strain; conditions: for % Remaining in ClbP Positve Relative to Media-Only: ClbP-encoding E. coli, 10 μM compound, 37° C., 20 h; for Difference between the ClbP Positive and ClbP Negative release profiles: conclusion from Table 4
How it was run: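 Compound (10 μM final) incubated 20 h at 37° C, aerobically, with 1:40-diluted overnight cultures of ClbP-positive E. coli or negative BL21(DE3), in duplicate, alongside uninoculated LB. Remaining parent quantified by LC-MS/MS (MRM) after acetonitrile quench, expressed as percent of media-alone.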

## CCCCCCCC(=O)N[C@H](CC(N)=O)C(=O)N[C@@H](CC(C)C)C(=O)OC [Example 7, Methyl octanoyl-D-asparaginyl-L-leucinate] (Octanoyl-[dN]-Leu-OMe)
WT ClbP; 100 μM compound
  Status (compound remaining in WT ClbP reaction relative to no-enzyme control): ++ (<25% compound remaining in the 20 μM WT ClbP reaction relative to the control)
[1]
  % Remaining in ClbP Positve Relative to Media-Only: + (between 25-75% compound remaining in the 20 μM WT ClbP reaction relative to the no-enzyme control)

## CCCCCCCC(=O)N[C@H](CCC(N)=O)C(=O)N[C@@H](C)C(=O)OC [Example 10, Methyl octanoyl-D-glutaminyl-L-alaninate] (Octanoyl-[dQ]-Ala-OMe)
WT ClbP; 500 μM compound
  Status (compound remaining in WT ClbP reaction relative to no-enzyme control): − (>75% compound remaining in the 20 μM WT ClbP reaction relative to the no-enzyme control)
[1]
  % Remaining in ClbP Positve Relative to Media-Only: + (between 25-75% compound remaining in the 20 μM WT ClbP reaction relative to the no-enzyme control)

## CCCCCCCC(=O)N[C@H](CC(N)=O)C(=O)N[C@H](C(=O)OC)C(C)C [Example 6, Methyl octanoyl-D-asparaginyl-L-valinate] (Octanoyl-[dN]-Val-OMe)
WT ClbP; 100 μM compound
  Status (compound remaining in WT ClbP reaction relative to no-enzyme control): ++ (<25% compound remaining in the 20 μM WT ClbP reaction relative to the control)
[1]
  % Remaining in ClbP Positve Relative to Media-Only: ++ (<25% compound remaining in the 20 μM WT ClbP reaction relative to the control)

## CCCCCCCCCCCCCC(=O)N[C@H](CC(N)=O)C(=O)NCCCC(=O)OC [Example 20, Methyl (R)-4-(4-amino-4-oxo-2-tetradecanamidobutanamido)butanoate]
WT ClbP; 100 μM compound
  Status (compound remaining in WT ClbP reaction relative to no-enzyme control): − (>75% compound remaining in the 20 μM WT ClbP reaction relative to the no-enzyme control)
[1]
  % Remaining in ClbP Positve Relative to Media-Only: + (between 25-75% compound remaining in the 20 μM WT ClbP reaction relative to the no-enzyme control)

## CCCCCCCC(=O)N[C@H](CC(N)=O)C(=O)NCCN(C)C(=O)Oc1ccc2c(C)cc(=O)oc2c1 [Example 70, 4-methyl-2-oxo-2H-chromen-7-yl (R)-(2-(4-amino-2-octanamido-4-oxobutanamido)ethyl)(methyl)carbamate]
[1]
  % Remaining in ClbP Positve Relative to Media-Only: + (between 25-75% compound remaining in the 20 μM WT ClbP reaction relative to the no-enzyme control)
  Difference between the ClbP Positive and ClbP Negative release profiles: particularly favorable difference

## CCCCCCCC(=O)N[C@H](CCC(=O)O)C(=O)N[C@@H](C)C(=O)OC [Example 9, (R)-5-(((S)-1-methoxy-1-oxopropan-2-yl)amino)-4-octanamido-5-oxopentanoic acid] (Octanoyl-[dE]-Ala-OMe)
WT ClbP; 100 μM compound
  Status (compound remaining in WT ClbP reaction relative to no-enzyme control): − (>75% compound remaining in the 20 μM WT ClbP reaction relative to the no-enzyme control)
[1]
  % Remaining in ClbP Positve Relative to Media-Only: + (between 25-75% compound remaining in the 20 μM WT ClbP reaction relative to the no-enzyme control)

## CCCCCCCCCCCCCC(=O)N[C@H](CC(N)=O)C(=O)N[C@@H](C)CCC(=O)O[C@]1(CC)C(=O)OCc2c1cc1n(c2=O)Cc2c-1nc1ccc(O)cc1c2CC [Example 35, (S)-4,11-diethyl-9-hydroxy-3,14-dioxo-3,4,12,14-tetrahydro-1H-pyrano[3′,4′:6,7]indolizino[1,2-b]quinolin-4-yl (S)-4-((R)-4-amino-4-oxo-2-tetradecanamidobutanamido)pentanoate]
[1]
  % Remaining in ClbP Positve Relative to Media-Only: + (between 25-75% compound remaining in the 20 μM WT ClbP reaction relative to the no-enzyme control)
  Difference between the ClbP Positive and ClbP Negative release profiles: particularly favorable difference

## CCCCCCCC(=O)N[C@H](CCCNC(=N)N)C(=O)N[C@@H](C)C(=O)OC [Example 11, Methyl octanoyl-D-arginyl-L-alaninate] (Octanoyl-[dR]-Ala-OMe)
WT ClbP; 500 μM compound
  Status (compound remaining in WT ClbP reaction relative to no-enzyme control): − (>75% compound remaining in the 20 μM WT ClbP reaction relative to the no-enzyme control)
[1]
  % Remaining in ClbP Positve Relative to Media-Only: + (between 25-75% compound remaining in the 20 μM WT ClbP reaction relative to the no-enzyme control)

## COC(=O)[C@H](C)NC(=O)[C@@H](CC(N)=O)NC(=O)[C@@H](C)c1ccc2cc(OC)ccc2c1 [Example 18, Methyl ((S)-2-(6-methoxynaphthalen-2-yl)propanoyl)-D-asparaginyl-L-alaninate]
WT ClbP; 100 μM compound
  Status (compound remaining in WT ClbP reaction relative to no-enzyme control): ++ (<25% compound remaining in the 20 μM WT ClbP reaction relative to the control)
[1]
  % Remaining in ClbP Positve Relative to Media-Only: + (between 25-75% compound remaining in the 20 μM WT ClbP reaction relative to the no-enzyme control)

## CCCCCCCC(=O)N[C@H](CC(N)=O)C(=O)N[C@H](C)C(=O)OC [Example 5, Methyl octanoyl-D-asparaginyl-D-alaninate] (Octanoyl-[dN]-[dA]-OMe)
WT ClbP; 100 μM compound
  Status (compound remaining in WT ClbP reaction relative to no-enzyme control): ++ (<25% compound remaining in the 20 μM WT ClbP reaction relative to the control)
[1]
  % Remaining in ClbP Positve Relative to Media-Only: ++ (<25% compound remaining in the 20 μM WT ClbP reaction relative to the control)
  Difference between the ClbP Positive and ClbP Negative release profiles: particularly favorable difference

## CCCCCCCCCCCCCC(=O)N[C@H](CC(N)=O)C(=O)Nc1ccc(COC)cc1 [Example 22, (R)—N1-(4-(methoxymethyl)phenyl)-2-tetradecanamidosuccinamide]
WT ClbP; 100 μM compound
  Status (compound remaining in WT ClbP reaction relative to no-enzyme control): + (between 25-75% compound remaining in the 20 μM WT ClbP reaction relative to the no-enzyme control)
[1]
  % Remaining in ClbP Positve Relative to Media-Only: − (>75% compound remaining in the 20 μM WT ClbP reaction relative to the no-enzyme control)

## CCCCCCCC(=O)N[C@H](CC(N)=O)C(=O)N[C@@H](C)C(=O)OC [Example 2, Methyl octanoyl-D-asparaginyl-L-alaninate] (Octanoyl-[dN]-Ala-OMe)
WT ClbP; 100 μM compound
  Status (compound remaining in WT ClbP reaction relative to no-enzyme control): ++ (<25% compound remaining in the 20 μM WT ClbP reaction relative to the control)
[1]
  % Remaining in ClbP Positve Relative to Media-Only: ++ (<25% compound remaining in the 20 μM WT ClbP reaction relative to the control)

## CCCCCCCCCCCCCC(=O)N[C@H](CC(N)=O)C(=O)N[C@@H](C)CCC(=O)OC [Example 21, Methyl (S)-4-((R)-4-amino-4-oxo-2-tetradecanamidobutanamido)pentanoate]
WT ClbP; 100 μM compound
  Status (compound remaining in WT ClbP reaction relative to no-enzyme control): + (between 25-75% compound remaining in the 20 μM WT ClbP reaction relative to the no-enzyme control)
[1]
  % Remaining in ClbP Positve Relative to Media-Only: + (between 25-75% compound remaining in the 20 μM WT ClbP reaction relative to the no-enzyme control)
